In US12060349B2, “Glucosylceramide synthase inhibitors” (Genzyme Corporation, priority 2012, dated 2024):
Where two headings read alike, the source gives them in different places.

How the values were obtained:
[1] = test system: GM3 expression on the cell surface, B16 mouse melanoma cells; experiment: cell based phenotypic assay, cell surface GM3 by antibody mediated immunofluorescence, B16 (GM3 B16 IC50); conditions: 50% inhibition of GM3 expression on the cell surface
Procedure, shortened: (§1)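 B16 mouse and C32 human melanoma cells; cell-surface GM3 measured by antibody-mediated immunofluorescence, giving IC50.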

[2] = test system: B16 mouse melanoma cells; experiment: cell viability in the B16 cell-based assay (Viability, B16 IC50); conditions: Mus musculus
Procedure, shortened: (§2)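 Viability readouts were run alongside the GM3 cell-surface assay in the same B16 and C32 cultures. A figure above 10 indicates no cell death.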

[3] = molecular target: T1, glucosylceramide synthase (Homo sapiens, UniProt Q16739); experiment: microsomal assay measuring conversion of ceramide to glucosylceramide by HPLC (GCS IC50); assay type: biochemical; conditions: concentration causing 50% inhibition of glucosylceramide synthase activity
T1 construct: Microsomes were isolated from A375 human melanoma cells; endogenous in cells; host or cells: A375 human melanoma cells (microsomal fraction, 100,000 g pellet)
T1 sequence (Q16739 1-394): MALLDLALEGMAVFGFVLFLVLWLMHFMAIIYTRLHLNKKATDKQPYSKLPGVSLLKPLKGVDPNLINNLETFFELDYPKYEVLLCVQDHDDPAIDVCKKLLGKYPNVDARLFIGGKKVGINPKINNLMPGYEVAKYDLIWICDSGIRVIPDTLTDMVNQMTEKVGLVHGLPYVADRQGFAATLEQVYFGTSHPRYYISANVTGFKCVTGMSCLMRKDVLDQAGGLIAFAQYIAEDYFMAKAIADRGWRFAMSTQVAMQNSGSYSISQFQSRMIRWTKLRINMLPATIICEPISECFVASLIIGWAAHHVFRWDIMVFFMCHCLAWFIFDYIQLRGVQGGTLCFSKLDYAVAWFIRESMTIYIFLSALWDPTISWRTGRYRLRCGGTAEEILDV
Procedure, shortened: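 IC50 is the compound concentration halving glucosylceramide synthase activity. Activity was measured in microsomes, with HPLC quantifying glucosylceramide formed from ceramide.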

[4] = test system: GM3 expression on the cell surface, C32 human melanoma cells; experiment: cell based phenotypic assay, cell surface GM3 by antibody mediated immunofluorescence, C32 (GM3 C32 IC50); conditions: 50% inhibition of GM3 expression on the cell surface
Procedure, shortened: as §1

[5] = test system: C32 human melanoma cells; experiment: cell viability in the C32 cell-based assay (Viability, C32 IC50); conditions: Homo sapiens, concentration causing 50% cell death, values greater than 10 represent a lack of cell death
Procedure, shortened: as §2

[6] = Mus musculus, B16 mouse melanoma cells, read-out: GM3 B16 IC50
[7] = B16, B16 cells, concentration causing 50% cell death, values greater than 10 represent a lack of cell death, read-out: Viability, B16 IC50
[8] = Homo sapiens, C32 human melanoma cells, read-out: GM3 C32 IC50
[9] = C32, C32 cells, read-out: Viability, C32 IC50
[10] = Mus musculus, read-out: GM3 B16 IC50, B16 mouse melanoma cells
[11] = B16, read-out: Viability, B16 IC50
[12] = Homo sapiens, read-out: GM3 C32 IC50, C32 human melanoma cells
[13] = C32, read-out: Viability, C32 IC50, C32 cells

Compound	IC50 [1, 6] [nM]	IC50 [2, 7] [µM]	IC50 [3] [nM]	IC50 [4, 8] [nM]	IC50 [5, 9] [nM]	IC50 [1, 10] [nM]	IC50 [2, 11] [µM]	IC50 [4, 12] [nM]	IC50 [5, 13] [nM]	IC50 ([1]; B16 mouse melanoma cells, read-out: GM3 B16 IC50) [nM]	IC50 ([4]; C32 human melanoma cells, read-out: GM3 C32 IC50) [nM]
CC(C)(C)CCS(=O)(=O)c1ccc(C#CC(C)(C)NC(=O)NC2(C)CCN3CCC2CC3)cc1 (stereo not drawn) [Example 336, 1-(4-(4-((3,3-Dimethylbutyl)sulfonyl)phenyl)-2-methylbut-3-yn-2-yl)-3-(4-methyl-1-azabicyclo[3.2.2]nonan-4-yl)urea]	38.8	≥ 10	1.2	0.902	≥ 10000	–	–	–	–	–	–
COCCOc1ccc(-c2ccc(C3(NC(=O)OC4CN5CCC4CC5)CC3)cc2)cc1 (stereo not drawn) [Example 166, Quinuclidin-3-yl (1-(4′-(2-methoxyethoxy)-[1,1′-biphenyl]-4-yl)cyclopropyl)carbamate]	–	–	5.69	–	–	21.9	0.316	1.81	215	–	–
C[C@H]1CN(C(=O)NC2(C)CCN3CCC2CC3)CCN1c1nccc(-c2ccccc2)n1 (single isomer, unassigned) [Example 139]	–	5.25	17.3	–	3160	–	–	–	–	67	1.37
CN(C(=O)C1CCN(c2nccc(-c3ccc(F)cc3)n2)CC1)C1CN2CCC1CC2 (stereo not drawn) [Example 109, 1-(4-(4-Fluorophenyl)pyrimidin-2-yl)-N-methyl-N-(quinuclidin-3-yl)piperidine-4-carboxamide]	2230	9.53	40.1	8.99	3160	–	–	–	–	–	–
CNC(=O)c1cccc(Oc2cccc(C(C)(C)NC(=O)NC3(C)CN4CCC3CC4)c2)c1 (stereo not drawn) [Example 296, N-Methyl-3-(3-(2-(3-(3-methylquinuclidin-3-yl)ureido)propan-2-yl)phenoxy)benzamide]	5470	≥ 10	200	155	≥ 10000	–	–	–	–	–	–
CC(C)(NC(=O)OC1CCN2CCC1CC2)c1ccc(-c2ccc(C(=O)N3CCOCC3)cc2)cc1 (stereo not drawn) [Example 266, 1-Azabicyclo[3.2.2]nonan-4-yl 2-(4′-(morpholine-4-carbonyl)biphenyl-4-yl)propan-2-ylcarbamate]	284	≥ 10	399	22.7	1000	–	–	–	–	–	–
COCCOCc1ccc(-c2ccc(C(C)(C)NC(=O)OC3CCN4CCC3CC4)cc2)cc1 (stereo not drawn) [Example 200, 1-Azabicyclo[3.2.2]nonan-4-yl (2-(4′-((2-methoxyethoxy)methyl)-[1,1′-biphenyl]-4-yl)propan-2-yl)carbamate]	220	≥ 10	24	6.16	1000	–	–	–	–	–	–
CC1(NC(=O)C2(F)CCN(c3nccc(Oc4ccc(C#N)cc4)n3)CC2)CCN2CCC1CC2 (stereo not drawn) [Example 120, 1-(4-(4-Cyanophenoxy)pyrimidin-2-yl)-4-fluoro-N-(4-methyl-1-azabicyclo[3.2.2]nonan-4-yl)piperidine-4-carboxamide]	18.8	≥ 10	4.12	0.332	316	–	–	–	–	–	–
CC1(COc2ccc(-c3ccc(C(C)(C)NC(=O)N4CCN5CCC4CC5)cc3)cc2)COC1 [Example 193, N-(2-(4′-((3-Methyloxetan-3-yl)methoxy)-[1,1′-biphenyl]-4-yl)propan-2-yl)-1,4-diazabicyclo[3.2.2]nonane-4-carboxamide]	318	≥ 10	297	44.7	≥ 10000	–	–	–	–	–	–
CC1(NC(=O)N2CCN(c3cccc(C4CCCCC4)c3)CC2)CCN2CCC1CC2 (stereo not drawn) [Example 29, 4-(3-Cyclohexylphenyl)-N-(4-methyl-1-azabicyclo[3.2.2]nonan-4-yl)piperazine-1-carboxamide]	2660	7.81	309	38.2	1000	–	–	–	–	–	–
COCCCOc1ccc(-c2ccnc(N3CCC(F)(C(=O)NC4(C)CCN5CCC4CC5)CC3)n2)cc1 (stereo not drawn) [Example 82, 4-Fluoro-1-(4-(4-(3-methoxypropoxy)phenyl)pyrimidin-2-yl)-N-(4-methyl-1-azabicyclo[3.2.2]nonan-4-yl)piperidine-4-carboxamide]	42.1	2.79	1.26	0.128	1000	–	–	–	–	–	–
COCCOc1ccc(-c2ccc(C(C)(C)NC(=O)OC3CN4CCC3CC4)cc2)nc1 (stereo not drawn) [Example 308, Quinuclidin-3-yl 2-(4-(5-(2-methoxyethoxy)pyridin-2-yl)phenyl)propan-2-ylcarbamate]	–	–	254	–	–	314	7.77	35.8	1000	–	–
CC1(NC(=O)C2CCN(c3nccc(-c4ccc(OCCF)cc4)n3)CC2)CCN2CCC1CC2 (stereo not drawn) [Example 71, 1-(4-(4-(2-Fluoroethoxy)phenyl)pyrimidin-2-yl)-N-(4-methyl-1-azabicyclo[3.2.2]nonan-4-yl)piperidine-4-carboxamide]	4.29	2.15	2.48	0.126	10	–	–	–	–	–	–
COCCOc1ccc(-c2ccnc(N3CCC(F)(C(=O)N[C@]4(C)CN5CCC4CC5)CC3)n2)cc1 [Example 86, (S)-4-Fluoro-1-(4-(4-(2-methoxyethoxy)phenyl)pyrimidin-2-yl)-N-(3-methylquinuclidin-3-yl)piperidine-4-carboxamide]	48	≥ 10	3.46	0.241	1000	–	–	–	–	–	–
CC(C)(NC(=O)OC1CCN2CCC1CC2)c1ccc(-c2ccc(C(=O)N3CC(F)(F)C3)cc2)cc1 (stereo not drawn) [Example 274, 1-Aza-bicyclo[3.2.2]nonan-4-yl 2-(4′-(3,3-difluoroazetidine-1-carbonyl)biphenyl-4-yl)propan-2-ylcarbamate]	67.3	≥ 10	30.4	4.78	1000	–	–	–	–	–	–
COCCOCc1ccc(-c2ccc(C3(NC(=O)NC4(C)CN5CCC4CC5)CC3)cc2)cc1 (stereo not drawn) [Example 205, 1-(1-(4′-((2-Methoxyethoxy)methyl)-[1,1′-biphenyl]-4-yl)cyclopropyl)-3-(3-methylquinuclidin-3-yl)urea]	156	≥ 10	51.5	5.31	1780	–	–	–	–	–	–
CCC1(NC(=O)NC(C)(C)c2ccc(-c3ccc(COCCOC)cc3)cc2)CN2CCC1CC2 (stereo not drawn) [Example 199, 1-(3-Ethylquinuclidin-3-yl)-3-(2-(4′-((2-methoxyethoxy)methyl)-[1,1′-biphenyl]-4-yl)propan-2-yl)urea]	31.7	1	14.7	1.8	1000	–	–	–	–	–	–
CC(C)(NC(=O)OC1CN2CCC1CC2)c1ccc(-c2ccc(OCCCC#N)cc2)cc1 (stereo not drawn) [Example 189, Quinuclidin-3-yl (2-(4′-(3-cyanopropoxy)-[1,1′-biphenyl]-4-yl)propan-2-yl)carbamate]	–	–	9.57	–	–	86.5	≥ 10	3.22	8470	–	–
O=C(NC1(c2ccc(-c3ccc(COCc4cncnc4)cc3)cc2)CC1)OC1CCN2CCC1CC2 (stereo not drawn) [Example 221, 1-Azabicyclo[3.2.2]nonan-4-yl (1-(4′-((pyrimidin-5-ylmethoxy)methyl)-[1,1′-biphenyl]-4-yl)cyclopropyl)carbamate]	99.2	≥ 10	52.1	21.1	≥ 10000	–	–	–	–	–	–
CCC1(NC(=O)NC2(c3ccc(-c4ccc(COCc5cccnc5)cc4)cc3)CC2)CN2CCC1CC2 (stereo not drawn) [Example 217, 1-(3-Ethylquinuclidin-3-yl)-3-(1-(4′-((pyridin-3-ylmethoxy)methyl)-[1,1′-biphenyl]-4-yl)cyclopropyl)urea]	168	≥ 10	13.3	4.02	≥ 10000	–	–	–	–	–	–
CN(C)C(=O)c1cccc(Oc2cccc(C(C)(C)NC(=O)NC3(C)CN4CCC3CC4)c2)c1 (stereo not drawn) [Example 289, N,N-Dimethyl-3-(3-(2-(3-(3-methylquinuclidin-3-yl)ureido)propan-2-yl)phenoxy)benzamide]	1410	9.26	104	91.7	≥ 10000	–	–	–	–	–	–
